Assay results from patent US11352350B2, “IRAK degraders and uses thereof” (Kymera Therapeutics, Inc., priority 2018, dated 2022).
Like-named read-outs stand apart in the source and are kept apart here.

What was measured:
[1] = molecular target: IRAK4 (Homo sapiens (Human), UniProt Q9NWZ3); assay: IRAK4 MSD degradation in OCI-LY10; format: cell-based
Procedure, shortened: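 OCI-LY10 cells treated with 8-point 1:3 dilutions (top 1 to 10 μM final) for 4 to 24 h at 37° C. Lysate IRAK4 measured by MSD sandwich immunoassay (2H9 capture, Y279 detection, SULFO-TAG anti-rabbit). DC50 from three-parameter logistic fit.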

[2] = system: OCI-LY10; assay: CTG Cell Viability Assay - OCI-LY10; format: cell-based, human; conditions: OCI-LY10, 4 days, read-out: CTG Cell Viability Assay - OCI-LY10: Average external-IC50
Procedure, shortened: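 OCI-LY10 cells exposed to 9-dose, 1:3 dilutions from 10 μM top (0.2% DMSO) for 4 days at 37° C, 5% CO2. Viability by CellTiter-Glo luminescence; IC50 from three-parameter logistic fit.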

[3] = OCI-LY10, 4 hrs, MSD, read-out: IRAK4 MSD degradation in OCI-LY10 at 4 hrs: Average external-Abs DC50
[4] = OCI-LY10, 24 hrs, MSD, read-out: IRAK4 MSD degradation in OCI-LY10 at 24 hrs: Average external-Abs DC50
[5] = OCI-LY10, 4 hrs, read-out: IRAK4 MSD degradation in OCI-LY10 at 4 hrs: DC50
[6] = OCI-LY10, 24 hrs, read-out: IRAK4 MSD degradation in OCI-LY10 at 24 hrs: DC50

IRAK4, sequence (Q9NWZ3 whole entry): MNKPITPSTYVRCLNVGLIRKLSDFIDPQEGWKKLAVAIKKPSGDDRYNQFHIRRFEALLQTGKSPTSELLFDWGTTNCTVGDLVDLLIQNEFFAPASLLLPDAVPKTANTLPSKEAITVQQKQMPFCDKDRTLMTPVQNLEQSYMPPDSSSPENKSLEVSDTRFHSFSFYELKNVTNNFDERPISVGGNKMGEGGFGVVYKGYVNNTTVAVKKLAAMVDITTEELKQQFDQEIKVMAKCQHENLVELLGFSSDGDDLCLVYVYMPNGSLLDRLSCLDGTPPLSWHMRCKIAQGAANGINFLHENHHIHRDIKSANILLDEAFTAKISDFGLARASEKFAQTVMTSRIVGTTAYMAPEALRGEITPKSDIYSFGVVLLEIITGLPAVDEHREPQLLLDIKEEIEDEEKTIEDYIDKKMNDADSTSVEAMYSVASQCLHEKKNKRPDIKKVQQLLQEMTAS

SMILES	DC50 [1, 3]	DC50 [1, 4]	IC50 ([2]; Homo sapiens, OCI-Ly10, 96 h)	IC50 [2]	DC50 [1, 5]	DC50 [1, 6]
CN(CCCOCCCNc1cccc2c1C(=O)N(C1CCC(=O)NC1=O)C2=O)C[C@H]1CC[C@H](n2cc(NC(=O)c3coc(-c4ccnc(N[C@H]5CCCC[C@H]5O)c4)n3)c(C(F)F)n2)CC1 (stereo partly shown) [I-398]	10 to 100 nM	10 to 100 nM	50 to 100 nM			
N#CCc1ccc2c(NC3CCC(N4CCN(C(=O)COCCOCCOCCNc5cccc6c5C(=O)N(C5CCC(=O)NC5=O)C6=O)CC4)CC3)ncnc2c1 (stereo not shown) [I-51]	> 1000 nM		> 1000 nM			
Cn1c(=O)n(C2CCC(=O)NC2=O)c2cccc(CCCOCC3CCN(C[C@H]4CC[C@H](n5cc(NC(=O)c6cnn7ccc(N8CCNCC8)nc67)c(C(F)F)n5)CC4)CC3)c21 (stereo partly shown) [I-164]	< 10 nM		> 1000 nM			
O=C1CCC(N2C(=O)c3cccc(NCCCOC4CCN(Cc5ccc(-n6cc(NC(=O)c7cnn8ccc(N9C[C@H]%10CC9CO%10)nc78)c(C(F)F)n6)cc5)CC4)c3C2=O)C(=O)N1 (stereo partly shown) [I-438]	100 to 1000 nM	10 to 100 nM	50 to 100 nM			
O=C(Nc1cn([C@H]2CC[C@H](CNC[C@H]3CC[C@H](n4cc(NC(=O)c5cnn6ccc(N7CCOCC7)nc56)c(C(F)F)n4)CC3)CC2)nc1C(F)F)c1cnn2ccc(N3CCOCC3)nc12 [I-408, N-[3-(difluoromethyl)-1-[4-[[[4-[3-(difluoromethyl)-4-[(5-morpholinopyrazolo[1,5-a]pyrimidine-3-carbonyl)amino]pyrazol-1-yl]cyclohexyl]methylamino]methyl]cyclohexyl]pyrazol-4-yl]-5-morpholino-pyrazol [1,5-a] pyrimidine-3-carboxamide]	> 1000 nM	> 1000 nM	> 1000 nM			
O=C1CCC(N2C[C@@H](c3ccc(C#CCCOC4CCN(C[C@H]5CC[C@H](n6cc(NC(=O)c7cnn8ccc(N9CCC(O)CC9)nc78)c(C(F)F)n6)CC5)CC4)cc3)OC2=O)C(=O)N1 (stereo partly shown) [I-152]	10 to 100 nM		> 1000 nM			
Cc1ccc(-n2nc(C3CCN(CCCCCOCCCc4ccc5c(c4)n(C)c(=O)n5C4CCC(=O)NC4=O)CC3)cc2NC(=O)c2cnn3cccnc23)nc1 (stereo not shown) [I-273]	> 1000 nM	> 1000 nM	> 1000 nM			
COc1cc(C(=O)NCCCCN(C)C[C@H]2CC[C@H](n3cc(NC(=O)c4coc(-c5ccnc(NCC6CC6)c5)n4)c(C(F)F)n3)CC2)ccc1NC(=O)[C@@H]1N[C@@H](CC(C)(C)C)[C@](C#N)(c2ccc(Cl)cc2F)[C@H]1c1cccc(Cl)c1F [I-142]	> 1000 nM	> 1000 nM		> 1000 nM		
O=C1CCC(N2C(=O)c3cccc(NCCc4ccc(CNC[C@H]5CC[C@H](n6cc(NC(=O)c7cnn8ccc(N9C[C@H]%10C[C@@H]9CO%10)nc78)c(C(F)F)n6)CC5)cc4)c3C2=O)C(=O)N1 (stereo partly drawn) [I-351, N-[3-(difluoromethyl)-1-[4-[[[4-[2-[[2-(2,6-dioxo-3-piperidyl)-1,3-dioxo-isoindolin-4-yl]amino]ethyl]phenyl]methylamino]methyl]cyclohexyl]pyrazol-4-yl]-5-[(1R,4R)-2-oxa-5-azabicyclo[2.2.1]heptan-5-yl]pyrazolo[1,5-a]pyrimidine-3-carboxamide]	> 1000 nM		> 1000 nM			
O=C1CCC(N2C(=O)c3cccc(OCCCOC4CCN(C[C@H]5CC[C@H](n6cc(NC(=O)c7cnn8ccc(N9CCOCC9)nc78)c(C(F)F)n6)CC5)CC4)c3C2=O)C(=O)N1 (stereo partly shown) [I-297]	10 to 100 nM			> 1000 nM		
Cn1c(=O)n([C@@H]2CCC(=O)NC2=O)c2cccc(CCCOC3CCN(C[C@H]4CC[C@H](n5cc(NC(=O)c6cnn7ccc(N8CCOCC8)nc67)c(C(F)F)n5)CC4)CC3)c21 [I-311, N-(3-(difluoromethyl)-1-((1r,4r)-4-((4-(3-(1-((R)-2,6-dioxopiperidin-3-yl)-3-methyl-2-oxo-2,3-dihydro-1H-benzo [d]imidazol-4-yl)propoxy)piperidin-1-yl)methyl)cyclohexyl)-1H-pyrazol-4-yl)-5-morpholinopyrazolo[1,5-a] pyrimidine-3-carboxamide]	10 to 100 nM		> 1000 nM			
O=C1CCC(N2C(=O)c3cccc(NCC(=O)N4CC5(CCN(C[C@H]6CC[C@H](n7cc(NC(=O)c8cnn9ccc(N%10CCOCC%10)nc89)c(C(F)F)n7)CC6)CC5)C4)c3C2=O)C(=O)N1 (stereo partly shown) [I-443]			< 50 nM		< 10 nM	< 10 nM
O=C1CCC(N2C(=O)c3cccc(NCC4CC5(CCN(Cc6ccc(-n7cc(NC(=O)c8cnn9ccc(N%10C[C@H]%11C[C@@H]%10CO%11)nc89)c(C(F)F)n7)cc6)CC5)C4)c3C2=O)C(=O)N1 (stereo partly shown) [I-462]			< 50 nM		100 to 1000 nM	> 1000 nM
O=C1CCC(N2C(=O)c3cccc(NCCCOC[C@@H]4CN(C[C@H]5CC[C@H](n6cc(NC(=O)c7cnn8ccc(N9C[C@H]%10C[C@@H]9CO%10)nc78)c(C(F)F)n6)CC5)CCO4)c3C2=O)C(=O)N1 (stereo partly shown) [I-352]	> 1000 nM	10 to 100 nM	500 to 1000 nM			
Cn1c(=O)n(C2CCC(=O)NC2=O)c2cccc(CCCOC3CCN(C[C@H]4CC[C@H](n5cc(NC(=O)c6cnn7ccc(N8C(=O)N[C@@H]9[C@H]8CCCC9(F)F)nc67)c(C(F)F)n5)CC4)CC3)c21 (stereo partly shown) [I-291]	10 to 100 nM	10 to 100 nM	< 50 nM			
Cc1ncsc1-c1ccc(CNC(=O)[C@@H]2C[C@@H](O)CN2C(=O)[C@@H](NC(=O)COCCOCCOCCOCC(=O)N2CCN(C3CCC(Nc4ncnc5cc(CC#N)ccc45)CC3)CC2)C(C)(C)C)cc1 (stereo partly shown) [I-49]	> 1000 nM		> 1000 nM			

SMILES	DC50 [1, 3]	DC50 [1, 4]	IC50 ([2]; Homo sapiens, OCI-Ly10, 96 h)	IC50 [2]	DC50 [1, 5]	DC50 [1, 6]
Cn1c(=O)n(C2CCC(=O)NC2=O)c2cccc(CN3CCC(O[C@H]4C[C@H](N(C)C[C@H]5CC[C@H](n6cc(NC(=O)c7coc(-c8ccnc(NCC9CC9)c8)n7)c(C(F)F)n6)CC5)C4)CC3)c21 (stereo partly shown) [I-249]	10 to 100 nM		< 50 nM			
O=C1CCC(N2C(=O)c3cccc(NCC4CCN(Cc5ccc(-n6cc(NC(=O)c7cnn8ccc(N9C[C@H]%10C[C@@H]9CO%10)nc78)c(C(F)F)n6)cc5)CC4)c3C2=O)C(=O)N1 (stereo partly shown) [I-489]			< 50 nM		100 to 1000 nM	> 1000 nM
CN(CC1CC1)c1ccn2ncc(C(=O)Nc3cn([C@H]4CC[C@H](CN(C)[C@H]5CC[C@H](Nc6cccc7c6C(=O)N(C6CCC(=O)NC6=O)C7=O)CC5)CC4)nc3C(F)F)c2n1 (stereo partly shown) [I-455]			50 to 100 nM		10 to 100 nM	10 to 100 nM
O=C1CCC(N2C(=O)c3cccc(NCCCOC[C@@H]4CN(C[C@H]5CC[C@H](n6cc(NC(=O)c7coc(-c8ccnc(NCC9CC9)c8)n7)c(C(F)F)n6)CC5)CCO4)c3C2=O)C(=O)N1 (stereo partly shown) [I-353]	10 to 100 nM	10 to 100 nM	100 to 500 nM			
Cn1c(=O)n(C2CCC(=O)NC2=O)c2cccc(CN3CC4(CCN(C[C@H]5CC[C@H](n6cc(NC(=O)c7cnn8ccc(N9CCOCC9)nc78)c(C(F)F)n6)CC5)CC4)C3)c21 (stereo partly shown) [I-233]	< 10 nM		100 to 500 nM			
CN(CCc1ccc(CNc2cccc3c2C(=O)N(C2CCC(=O)NC2=O)C3=O)cc1)C[C@H]1CC[C@H](n2cc(NC(=O)c3cnn4ccc(N5C[C@H]6C[C@@H]5CO6)nc34)c(C(F)F)n2)CC1 (stereo partly shown) [I-359]	> 1000 nM	> 1000 nM	< 50 nM			
O=C1CCC(N2C(=O)c3cccc(NC4CCN(CCCNC[C@H]5CC[C@H](n6cc(NC(=O)c7cnn8ccc(N9CCOCC9)nc78)c(C(F)F)n6)CC5)CC4)c3C2=O)C(=O)N1 (stereo partly shown) [I-384]	10 to 100 nM		< 50 nM			
CN(C[C@H]1CC[C@H](n2cc(NC(=O)c3cnn4ccc(N5CCOCC5)nc34)c(C(F)F)n2)CC1)C1CCC(N(C)c2cccc3c2C(=O)N(C2CCC(=O)NC2=O)C3=O)CC1 (stereo partly shown) [I-222]	10 to 100 nM		100 to 500 nM			
Cn1c(=O)n(C2CCC(=O)NC2=O)c2cccc(CCCOC3CCN([C@H]4CC[C@@H](Nc5ncnc6ccc(C#N)cc56)CC4)CC3)c21 (stereo partly shown) [I-305, 4-[[4-[4-[3-[1-(2,6-dioxo-3-piperidyl)-3-methyl-2-oxo-benzimidazol-4-yl]propoxy]-1-piperidyl]cyclohexyl]amino]quinazoline-6-carbonitrile]	> 1000 nM	> 1000 nM	> 1000 nM			
O=C1CCC(N2C(=O)c3cccc(NCCCOC[C@@H]4CN(Cc5ccc(-n6cc(NC(=O)c7coc(-c8ccnc(NCC9CC9)c8)n7)c(C(F)F)n6)cc5)CCO4)c3C2=O)C(=O)N1 (stereo partly shown) [I-393]	100 to 1000 nM	10 to 100 nM	50 to 100 nM			
Cn1c(=O)n(C2CCC(=O)NC2=O)c2cccc(CN3CCC4(CC3)CN(C[C@H]3CC[C@H](n5cc(NC(=O)c6coc(-c7ccnc(NCC8CC8)c7)n6)c(C(F)F)n5)CC3)C4)c21 (stereo partly shown) [I-244]	< 10 nM		100 to 500 nM			
CN(CCOCCOCCOC12CC3CC(CC(C3)C1)C2)C[C@H]1CC[C@H](n2cc(NC(=O)c3cnn4ccc(N5CCNCC5)nc34)c(C(F)F)n2)CC1 [I-175]	> 1000 nM	> 1000 nM	> 1000 nM			
Cn1c(=O)n(C2CCC(=O)NC2=O)c2ccc(CN3CCC(CN4CCC(n5cc(NC(=O)c6coc(-c7ccnc(NCC8CC8)c7)n6)c(C(F)F)n5)CC4)CC3)cc21 (stereo not shown) [I-182]	100 to 1000 nM		> 1000 nM			
O=C1CCC(N2Cc3c(OCc4ccc(CN5CCN(C[C@H]6CC[C@H](n7cc(NC(=O)c8cnn9ccc(N%10CCOCC%10)nc89)c(C(F)F)n7)CC6)CC5)cc4)cccc3C2=O)C(=O)N1 (stereo partly shown) [I-377]	> 1000 nM	< 10 nM	< 50 nM			
CN(CCCOC1CCN(C[C@H]2CC[C@H](n3cc(NC(=O)c4cnn5ccc(N6CCOCC6)nc45)c(C(F)F)n3)CC2)CC1)c1cccc2c1C(=O)N(C1CCC(=O)NC1=O)C2=O (stereo partly shown) [I-212]	10 to 100 nM		> 1000 nM			
